The values that follow come from patent publication US8710233B2 (Gruenenthal GmbH, priority 2005, dated 2014).

Each structure is given as a SMILES string.

The target of one assay is T1, vanilloid receptor (VR1) (Homo sapiens, UniProt Q8NER1).
T1 construct: expressed in transfected cells; host or cells: CHO K1 cells (ECACC), stably transfected
As to the kind of experiment: FLIPR Ca2+ influx assay on CHO K1 cells transfected with the VR1 gene (pharmacological method II). The class given is cell-based. Particulars: table 4; capsaicin; read-out: Ki (human) Cap.

The target of a further assay is VR1/TRPV1 receptor (Homo sapiens, UniProt Q8NER1). As to the kind of experiment: IC50 (human) after pH stimulus. Type of assay: cell-based. Particulars: for inhibition at 0.1 µM / inhibition at 1 µM / inhibition at 5 µM / inhibition at 10 µM: read-out: inhibition in percent, IC50 (human) after pH stimulus; for inhibition at 1 µM / inhibition in percent, IC50 (human) after pH stimulus: ne = no effect, @ 1 μM; for IC50: table 4.
Chain of VR1/TRPV1 receptor (Q8NER1 whole entry): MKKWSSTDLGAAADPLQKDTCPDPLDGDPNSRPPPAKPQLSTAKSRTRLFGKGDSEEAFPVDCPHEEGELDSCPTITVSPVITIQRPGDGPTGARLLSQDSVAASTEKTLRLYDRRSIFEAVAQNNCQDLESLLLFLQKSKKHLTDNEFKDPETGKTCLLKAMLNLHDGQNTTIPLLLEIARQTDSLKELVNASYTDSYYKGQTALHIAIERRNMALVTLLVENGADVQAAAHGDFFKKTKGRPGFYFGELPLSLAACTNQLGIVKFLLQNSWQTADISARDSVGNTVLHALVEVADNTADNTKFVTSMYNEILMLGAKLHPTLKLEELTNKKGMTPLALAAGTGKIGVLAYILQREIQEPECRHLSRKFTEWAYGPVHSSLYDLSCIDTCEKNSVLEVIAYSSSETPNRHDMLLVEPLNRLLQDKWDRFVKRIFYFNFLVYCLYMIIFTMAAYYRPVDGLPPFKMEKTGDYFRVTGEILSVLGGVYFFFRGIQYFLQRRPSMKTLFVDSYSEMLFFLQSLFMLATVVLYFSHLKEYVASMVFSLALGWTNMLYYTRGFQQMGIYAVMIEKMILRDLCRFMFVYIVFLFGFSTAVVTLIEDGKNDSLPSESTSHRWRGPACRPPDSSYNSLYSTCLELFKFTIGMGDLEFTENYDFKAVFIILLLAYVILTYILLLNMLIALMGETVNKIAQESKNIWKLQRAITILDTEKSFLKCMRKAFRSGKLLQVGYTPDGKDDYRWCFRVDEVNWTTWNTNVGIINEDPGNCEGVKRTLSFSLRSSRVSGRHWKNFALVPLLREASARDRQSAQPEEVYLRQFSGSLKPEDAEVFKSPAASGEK

T1 sequence (Q8NER1 whole entry): as above

As a reminder, the Ki is a measure of affinity in units of concentration, obtained from inhibition or displacement. What is called inhibition is the change of the read-out against control, counted positive when it falls. Regarding `CCCC(CCC)Oc1nc(C(F)(F)F)ccc1CNC(=O)C(C)c1ccc(NS(C)(=O)=O)c(F)c1` (stereo not drawn) [Example 336, 2-(3-fluoro-4-methylsulfonamido-phenyl)-N-[2-(1-propyl-butoxy)-6-trifluoromethyl-pyridin-3-ylmethyl]-propionamide], the Ki on vanilloid receptor (VR1) amounted to 0.7 nM. Also, on VR1/TRPV1 receptor, the inhibition at 0.1 µM was 35% and the inhibition at 1 µM amounted to 50%.

Take `CC(C)CC(CC(C)C)Oc1nc(C(F)(F)F)ccc1CNC(=O)C(C)c1ccc(NS(C)(=O)=O)c(F)c1` (stereo not drawn) [Example 337, 2-(3-fluoro-4-methylsulfonamido-phenyl)-N-[2-(1-isobutyl-3-methyl-butoxy)-6-trifluoromethyl-pyridin-3-ylmethyl]-propionamide]: the Ki on vanilloid receptor (VR1) is 0.7 nM. Besides, at VR1/TRPV1 receptor, the inhibition at 5 µM worked out at 6% and the inhibition at 10 µM is 30%.

As usually defined, the IC50 is the concentration that gives 50% inhibition. Low values mean greater potency, high ones weaker potency. Regarding `CC(C(=O)NCc1ccc(C(F)(F)F)nc1OC1CCC(C)(C)CC1)c1ccc(NS(C)(=O)=O)c(F)c1` (stereo not drawn) [Example 338, N-[2-(4,4-dimethyl-cyclohexyloxy)-6-trifluoromethyl-pyridin-3-ylmethyl]-2-(3-fluoro-4-methylsulfonamido-phenyl)-propionamide], the Ki at vanilloid receptor (VR1) was 0.9 nM. Also, 140 nM corresponded to half-maximal inhibition against VR1/TRPV1 receptor (IC50).

On to `CC(C(=O)NCc1ccc(C(F)(F)F)nc1OC1CCC(C(F)(F)F)CC1)c1ccc(NS(C)(=O)=O)c(F)c1` (stereo not drawn) [Example 339, 2-(3-fluoro-4-methylsulfonamido-phenyl)-N-[6-trifluoromethyl-2-(4-trifluoromethyl-cyclohexyloxy)-pyridin-3-ylmethyl]-propionamide], for which the Ki on vanilloid receptor (VR1) stood at 0.3 nM. For the same compound, half-maximal inhibition on VR1/TRPV1 receptor (IC50) required 14 nM.

Consider `CC(C(=O)NCc1ccc(C(F)(F)F)nc1OC1CCC(C(F)(F)F)CC1)c1ccc(NS(C)(=O)=O)c(F)c1` (stereo not drawn) [Example 340, 2-(3-fluoro-4-methylsulfonamido-phenyl)-N-[6-trifluoromethyl-2-(4-trifluoromethyl-cyclohexyloxy)-pyridin-3-ylmethyl]-propionamide], for which the Ki at vanilloid receptor (VR1) was determined as 1.2 nM. Besides, on VR1/TRPV1 receptor, 279 nM corresponded to half-maximal inhibition (IC50).

As to `CC(C(=O)NCc1ccc(C(F)(F)F)nc1OC1CCN(C(=O)OC(C)(C)C)CC1)c1ccc(NS(C)(=O)=O)c(F)c1` (stereo not drawn) [Example 341, 4-(3-{[2-(3-fluoro-4-methylsulfonamido-phenyl)-propionylamino]-methyl}-6-trifluoromethyl-pyridin-2-yloxy)-piperidine-1-carbonic acid tert-butyl ester], the Ki at vanilloid receptor (VR1) is 1.3 nM. Further, the IC50 against VR1/TRPV1 receptor stood at 293 nM.

With `CC(C(=O)NCc1ccc(C(F)(F)F)nc1NCC1CCN(C(=O)OC(C)(C)C)CC1)c1ccc(NS(C)(=O)=O)c(F)c1` (stereo not drawn) [Example 342, 4-[(3-{[2-(3-fluoro-4-methylsulfonamido-phenyl)-propionylamino]-methyl}-6-trifluoromethyl-pyridin-2-ylamino)-methyl]-piperidine-1-carbonic acid tert-butyl ester], the Ki on vanilloid receptor (VR1) amounted to 19.3 nM. The same compound yielded an IC50 against VR1/TRPV1 receptor of 1140 nM.

In the case of `Cc1ccc(Oc2nc(C(F)(F)F)ccc2CNC(=O)C(C)c2ccc(NS(C)(=O)=O)c(F)c2)cc1` (stereo not drawn) [Example 345, 2-(3-fluoro-4-methylsulfonamido-phenyl)-N-(2-p-tolyloxy-6-trifluoromethyl-pyridin-3-ylmethyl)-propionamide], the Ki at vanilloid receptor (VR1) turned out to be 2.8 nM. Moreover, at VR1/TRPV1 receptor, the inhibition at 0.1 µM worked out at 3%, the inhibition at 1 µM turned out to be 38% and the inhibition at 5 µM worked out at 45%.

With `CC(C(=O)NCc1ccc(C(F)(F)F)nc1/C=C/C1CCCCC1)c1ccc(NS(C)(=O)=O)c(F)c1` (stereo not drawn) [Example 346, N-[2-(2-cyclohexyl-vinyl)-6-trifluoromethyl-pyridin-3-ylmethyl]-2-(3-fluoro-4-methylsulfonamido-phenyl)-propionamide], on vanilloid receptor (VR1), the Ki was found to be 0.7 nM. This compound also displayed an IC50 at VR1/TRPV1 receptor of 66 nM.

`Cc1cc(C(F)(F)F)nc(OC2CCCC2)c1CNC(=O)C(C)c1ccc(NS(C)(=O)=O)c(F)c1` (stereo not drawn) [Example 349]: the Ki on vanilloid receptor (VR1) was 44 nM. Besides, the “inhibition in percent, IC50 (human) after pH stimulus” value at VR1/TRPV1 receptor is recorded as “ne @ 1 μM”.

`COc1cc(OC)cc(-c2cc(C(F)(F)F)ccc2CNC(=O)C(C)c2ccc(NS(C)(=O)=O)c(F)c2)c1` (stereo not drawn) [Example 350, N-(3′,5′-dimethoxy-5-trifluoromethyl-biphenyl-2-ylmethyl)-2-(3-fluoro-4-methylsulfonamido-phenyl)-propionamide]: the Ki at vanilloid receptor (VR1) was 5.8 nM. Besides, on VR1/TRPV1 receptor, the inhibition at 0.1 µM was 4% and the inhibition at 1 µM came to 52%.

Turning to `CCCCC(CCCC)Oc1nc(C(F)(F)F)ccc1CNC(=O)C(C)c1ccc(NS(C)(=O)=O)c(F)c1` (stereo not drawn) [Example 352, N-[2-(1-butyl-pentyloxy)-6-trifluoromethyl-pyridin-3-ylmethyl]-2-(3-fluoro-4-methylsulfonamido-phenyl)-propionamide], the Ki on vanilloid receptor (VR1) came to 0.5 nM. Further, on VR1/TRPV1 receptor, the inhibition at 5 µM is 34% and the inhibition at 10 µM turned out to be 61%.

As to `CC(C)COc1nc(C(C)(C)C)ccc1CNC(=O)C(C)c1ccc(NS(C)(=O)=O)c(F)c1` (stereo not drawn) [Example 353, N-(6-tert-butyl-2-isobutoxy-pyridin-3-ylmethyl)-2-(3-fluoro-4-methylsulfonamido-phenyl)-propionamide], the Ki at vanilloid receptor (VR1) was 0.6 nM. On VR1/TRPV1 receptor, the inhibition at 0.1 µM turned out to be 28% and the inhibition at 1 µM was 25%.

Take `CC(C(=O)NCc1ccc(C(F)(F)F)nc1C#Cc1ccccc1)c1ccc(NS(C)(=O)=O)c(F)c1` (stereo not drawn) [Example 354, 2-(3-fluoro-4-methylsulfonamido-phenyl)-N-(2-phenylethynyl-6-trifluoromethyl-pyridin-3-ylmethyl)-propionamide]: at vanilloid receptor (VR1), the Ki amounted to 0.8 nM. Moreover, inhibition at VR1/TRPV1 receptor was half-maximal at 85 nM (IC50).

`COCCCOc1nc(C(F)(F)F)ccc1CNC(=O)C(C)c1ccc(NS(C)(=O)=O)c(F)c1` (stereo not drawn) [Example 355, 2-(3-fluoro-4-methylsulfonamido-phenyl)-N-[2-(3-methoxy-propoxy)-6-trifluoromethyl-pyridin-3-ylmethyl]-propionamide]: the Ki on vanilloid receptor (VR1) amounted to 15.3 nM. This compound also registered an IC50 on VR1/TRPV1 receptor of 2200 nM.

With `Cc1cc(C(F)(F)F)nc(N2CCC(Cc3ccccc3)CC2)c1CNC(=O)C(C)c1ccc(NS(C)(=O)=O)c(F)c1` (stereo not drawn) [Example 356, N-(4-benzyl-4′-methyl-6′-trifluoromethyl-3,4,5,6-tetrahydro-2H-[1,2′]bipyridinyl-3′-ylmethyl)-2-(3-fluoro-4-methylsulfonamido-phenyl)-propionamide], at vanilloid receptor (VR1), the Ki came to 9.2 nM. Also, the “inhibition in percent, IC50 (human) after pH stimulus” value on VR1/TRPV1 receptor is “ne @ 1 μM”.

Regarding `CCOCCCOc1nc(C(F)(F)F)ccc1CNC(=O)C(C)c1ccc(NS(C)(=O)=O)c(F)c1` (stereo not drawn) [Example 361, N-[2-(3-ethoxy-propoxy)-6-trifluoromethyl-pyridin-3-ylmethyl]-2-(3-fluoro-4-methylsulfonamido-phenyl)-propionamide], the Ki at vanilloid receptor (VR1) turned out to be 9.7 nM. The same compound displayed an IC50 against VR1/TRPV1 receptor of 462 nM.

Take `CC(C(=O)NCc1ccc(C(F)(F)F)nc1OCCOc1ccccc1)c1ccc(NS(C)(=O)=O)c(F)c1` (stereo not drawn) [Example 362, 2-(3-fluoro-4-methylsulfonamido-phenyl)-N-[2-(2-phenoxy-ethoxy)-6-trifluoromethyl-pyridin-3-ylmethyl]-propionamide]: the Ki on vanilloid receptor (VR1) is 1.5 nM. On VR1/TRPV1 receptor, this compound yielded an IC50 of 161 nM.

In the case of `COc1cc(COc2nc(C(F)(F)F)ccc2CNC(=O)C(C)c2ccc(NS(C)(=O)=O)c(F)c2)cc(OC)c1` (stereo not drawn) [Example 363, N-[2-(3,5-dimethoxy-benzyloxy)-6-trifluoromethyl-pyridin-3-ylmethyl]-2-(3-fluoro-4-methylsulfonamido-phenyl)-propionamide], the Ki on vanilloid receptor (VR1) came to 0.7 nM. The compound also had an IC50 at VR1/TRPV1 receptor of 76 nM.

Take `CCCOc1nc(C(C)(C)C)ccc1CNC(=O)C(C)c1ccc(NS(C)(=O)=O)c(F)c1` (stereo not drawn) [Example 369, N-((6-tert-butyl-2-propoxypyridin-3-yl)methyl)-2-(3-fluoro-4-(methylsulfonamido)phenyl)propanamide]: the Ki on vanilloid receptor (VR1) stood at 1.7 nM. In addition, the half-maximal inhibitory concentration (IC50) on VR1/TRPV1 receptor turned out to be 182 nM.

For `COCCCOc1nc(C(C)(C)C)ccc1CNC(=O)C(C)c1ccc(NS(C)(=O)=O)c(F)c1` (stereo not drawn) [Example 370, N-((6-tert-butyl-2-(3-methoxypropoxy)pyridin-3-yl)methyl)-2-(3-fluoro-4-(methylsulfonamido)phenyl)propanamide], the Ki on vanilloid receptor (VR1) came to 5.6 nM. Moreover, on VR1/TRPV1 receptor, the IC50 is 250 nM.

For the compound `COc1nc(C(C)(C)C)ccc1CNC(=O)C(C)c1ccc(NS(C)(=O)=O)c(F)c1` (stereo not drawn) [Example 372, N-((6-tert-butyl-2-methoxypyridin-3-yl)methyl)-2-(3-fluoro-4-(methylsulfonamido)phenyl)propanamide], the Ki on vanilloid receptor (VR1) came to 14.3 nM. Besides, the inhibition at 1 µM at VR1/TRPV1 receptor stood at 52%.

Regarding `CCOc1nc(C(C)(C)C)ccc1CNC(=O)C(C)c1ccc(NS(C)(=O)=O)c(F)c1` (stereo not drawn) [Example 373, N-((6-tert-butyl-2-ethoxypyridin-3-yl)methyl)-2-(3-fluoro-4-(methylsulfonamido)phenyl)propanamide], at vanilloid receptor (VR1), the Ki stood at 14.8 nM. The same compound displayed an IC50 at VR1/TRPV1 receptor of 492 nM.

Turning to `CC(C)Oc1nc(C(C)(C)C)ccc1CNC(=O)C(C)c1ccc(NS(C)(=O)=O)c(F)c1` (stereo not drawn) [Example 374, N-((6-tert-butyl-2-isopropoxypyridin-3-yl)methyl)-2-(3-fluoro-4-(methylsulfonamido)phenyl)propanamide], the Ki on vanilloid receptor (VR1) was found to be 2.3 nM. The compound further displayed an IC50 on VR1/TRPV1 receptor of 314 nM.

Regarding `CCCCCCOc1nc(C(F)(F)F)ccc1CNC(=O)C(C)c1ccc(NS(C)(=O)=O)c(F)c1` (stereo not drawn) [Example 376, 2-(3-fluoro-4-(methylsulfonamido)phenyl)-N-((2-(hexyloxy)-6-(trifluoromethyl)pyridin-3-yl)methyl)propanamide], at vanilloid receptor (VR1), the Ki worked out at 0.8 nM. At VR1/TRPV1 receptor, the IC50 came to 20 nM.
